The text below walks through data of PubChem BioAssay AID1996.

SMILES strings stand for the structures. ≈ marks a conversion by molar mass, not a printed value.

For the data set the following is noted: buffer; pH 7.4; 200.0 µM.
One may read the solubility (kinetic) as the concentration staying in solution when a stock, usually in DMSO, is diluted into the medium. `C=CCNC(=O)c1cccc(NS(=O)(=O)c2ccc(Cl)cc2)c1` returned a solubility (kinetic) of 49.9 µg/mL (≈ 142 µM). The value for `COCCNC(=O)CN1C(=O)c2cccc3cccc1c23` was more than 42.6 µg/mL; that for `NS(=O)(=O)c1cccc(C(=O)NC2CCSc3ccccc32)c1` (stereo not given) was 42.4 µg/mL (≈ 122 µM); that for `CCCCn1cnc2c(oc3ccccc32)c1=O` was more than 36.3 µg/mL. The value for `COC(=O)c1[nH]c2cc(OC)ccc2c1N=CN(C)C` was 38.4 µg/mL (≈ 139 µM). With `CCC1=C(C)CN(C(=O)NCCc2ccc(S(=O)(=O)NC(=O)NC3CCC(C)CC3)cc2)C1=O` (stereo not given) the figure was more than 73.6 µg/mL; with `Cc1sc(NC(=O)C2=COCCO2)c(C(N)=O)c1C`, more than 42.3 µg/mL; with `Cc1onc(-c2c(F)cccc2Cl)c1C(=O)NCc1ccccc1`, 49.7 µg/mL (≈ 144 µM).

In the case of `C/C(=N\NC(=O)C1CC1)c1ccc(C)c(C)c1`, the solubility (kinetic) is more than 34.5 µg/mL. Turning to `Cc1ccc(NC(=O)CCn2cc(C(F)(F)F)ccc2=O)cc1`, the kinetic solubility is 45.5 µg/mL (≈ 140 µM). `Cn1cccc1C(=O)OCC(=O)NCCCc1ccccc1` yielded a kinetic solubility of more than 45.1 µg/mL. The molecule `O=C1CCCc2nc(N3CCN(C(=O)c4ccco4)CC3)ncc21` yielded a kinetic solubility of more than 49 µg/mL. `Cc1ccc(N2CCN(S(=O)(=O)N3CCCCC3)CC2)c(C)c1`: the solubility (kinetic) was 3.8 µg/mL (≈ 11.3 µM). The value for `Cn1c(Oc2ccc(F)cc2F)c(C=O)c2ccccc21` was 16.6 µg/mL (≈ 57.8 µM); that for `CC(=O)NCc1ccc(S(=O)(=O)N2CCCN(C)CC2)cc1.Cl` was more than 54.3 µg/mL. As for `O=Cc1cnc(N2CCN(c3ccccc3)CC2)s1`, the solubility (kinetic) was more than 41 µg/mL. Regarding `CN(C)NC(=O)c1csnc1-c1c(Cl)cccc1Cl`, the solubility (kinetic) is more than 47.4 µg/mL. The value for `O=C(NCCSCc1c(F)cccc1Cl)Nc1ccccc1` was 2.5 µg/mL (≈ 7.38 µM); that for `CCN1CCN(C(=S)NC(=O)c2cccc(Br)c2)CC1` was more than 53.4 µg/mL. The value for `CN(c1nc2ccccc2[nH]c1=O)C1CCCCC1` was 2.9 µg/mL (≈ 11.3 µM); that for `COc1ccc(CCNC(=O)C2Cc3ccccc3C(=O)O2)cc1` (stereo not given) was more than 48.8 µg/mL.

Molecule `CN(Cc1ccc2ccccc2c1)C(=O)c1ccc(C(F)(F)F)cc1` gave a kinetic solubility of 4.6 µg/mL (≈ 13.4 µM). The value for `COc1ccccc1N1Cc2ccc(OC)c(OC)c2C1=O` was more than 44.9 µg/mL. For `COc1cc(C#N)ccc1OCC(=O)NCCC1=CCCCC1`, the solubility (kinetic) was determined as 3.7 µg/mL (≈ 11.8 µM). In turn, `O=c1[nH]c(/C=C\c2ccc(O)c(Cl)c2)nc(O)c1[N+](=O)[O-]` had a kinetic solubility of 44 µg/mL (≈ 142 µM). In turn, `CN(CC(=O)NCC1CCCCC1)S(=O)(=O)c1ccc(F)cc1` had a kinetic solubility of 16.2 µg/mL (≈ 47.3 µM). This solubility kinetic lies about 2.7-fold lower than the previous one. With `COc1ccc(C)cc1S(=O)(=O)NNc1nc(C)cc(C)n1` the figure was more than 48.4 µg/mL; with `CS(=O)(=O)N(CC(=O)N1CCCCCC1)c1cccc(F)c1`, more than 49.3 µg/mL.

As for `CCCCCCCn1c(NC(=O)CC)nc2ccccc21`, the kinetic solubility came out at 13.8 µg/mL (≈ 48 µM). `CN1CCN(CC(C)(C)NS(=O)(=O)c2ccccc2)CC1` gave a solubility (kinetic) of more than 46.7 µg/mL. Consider `CC(C)(C)C1CCC(=NOC(=O)c2ccc(F)cc2)CC1` (stereo not given), for which the kinetic solubility is 1.3 µg/mL (≈ 4.46 µM).

`O=C(CN1C(=O)NC2(CCc3ccccc32)C1=O)c1cccs1` (stereo not given) registered a solubility (kinetic) of more than 49 µg/mL. With `O=C(O)c1ccc(-c2nnc(-c3ccccc3)o2)cc1` the figure was more than 39.9 µg/mL; with `O=C(Cc1ccc([N+](=O)[O-])cc1)Nc1cccnc1`, more than 38.6 µg/mL; with `CCOC(=O)c1cn2c(C)cccc2n1`, more than 30.6 µg/mL. In turn, `COc1ccc(CCn2cnc3c([nH]c4ccccc43)c2=O)cc1` displayed a solubility (kinetic) of less than 0.2 µg/mL. With `Cc1ccc(N2CC(C(=O)N3CCCCC3)CC2=O)cc1C` (stereo not given) the figure was more than 45.1 µg/mL. With `COc1ccc(Cl)cc1CN1CCOCC1.Cl` the figure was more than 41.7 µg/mL; with `Cc1ccc(NC(=O)C(=O)NCCCN2CC(C(=O)O)CC2=O)cc1` (stereo not given), more than 52.1 µg/mL; with `Cc1ccnc(NC(=O)c2ccc3[nH]c(=O)c(=O)[nH]c3c2)c1`, 2.2 µg/mL (≈ 7.43 µM). `Cc1c[nH]c(=O)c([N+](=O)[O-])c1` came in with a solubility (kinetic) of more than 23.1 µg/mL. With `COc1ccc([N+](=O)[O-])cc1Nc1c2ccccc2nc2ccccc12` the figure was less than 0.2 µg/mL. `CCOC(=O)CN1C(=O)C(=O)N(Cc2cccc(C)c2)C1=O` came in with a kinetic solubility of more than 45.6 µg/mL.

Take `CNC(=O)/C(C#N)=C/c1cn(CC(=O)OC)c2ccccc12`: the kinetic solubility worked out at 7.8 µg/mL (≈ 26.2 µM). `CCOc1ccc(S(=O)(=O)N(C)C2CCCCC2)cc1` registered a solubility (kinetic) of 18.1 µg/mL (≈ 60.9 µM). The molecule `O=C(Nc1ccc(F)cc1F)c1cc2ccccc2oc1=O` gave a solubility (kinetic) of less than 0.6 µg/mL. Molecule `Cc1nc2ccccc2n1Cc1ccccc1` registered a kinetic solubility of 32.9 µg/mL (≈ 148 µM).

On to `NS(=O)(=O)c1cccc(NC(=O)CC2(CC(=O)O)CCCC2)c1`, for which the kinetic solubility worked out at 41.7 µg/mL (≈ 123 µM). The molecule `COc1cc(S(=O)(=O)NCCCn2ccnc2)ccc1F` displayed a kinetic solubility of 46.2 µg/mL (≈ 147 µM).

In the case of `Cc1nc(SCC(=O)NC(=O)NC2CCCCC2)nc(C)c1C`, the kinetic solubility was found to be 47.8 µg/mL (≈ 142 µM). This solubility kinetic and that of the molecule before are within 1.5-fold of each other. With `CCCc1ncc(C(O)c2ccccc2OC)n1C` (stereo not given) the figure was more than 39.1 µg/mL; with `CC(NC(=O)Cc1ccsc1)c1ccc(F)cc1` (stereo not given), more than 39.5 µg/mL. The value for `CCc1cc(C(=O)OC)c(NC(=O)c2ccoc2C)s1` was less than 0.6 µg/mL; that for `O=C(NCCCSc1ccccc1)c1cccnc1` was more than 40.9 µg/mL; that for `Cc1ccc(C(=O)NCCCn2ccnc2)cc1C` was more than 38.6 µg/mL.

For `COc1ccc(S(=O)(=O)NC(C)C(=O)N2CCCC2)cc1C` (stereo not given), the solubility (kinetic) was 41.9 µg/mL (≈ 128 µM). The value for `O=C(O)c1cccc(CN2C(=O)c3ccccc3C2=O)c1` was more than 42.2 µg/mL.

Turning to `Cc1nc(SCC(=O)NC2CCCC2)c2c(C)c(C)sc2n1`, the kinetic solubility came to 0.5 µg/mL (≈ 1.49 µM).

Molecule `CC(C)c1nc2cc(Cl)ccc2n(Cc2ccccc2)c1=O` had a kinetic solubility of 0.4 µg/mL (≈ 1.28 µM). Regarding `N#CCN1CCCC(C(N)=O)C1` (stereo not given), the kinetic solubility turned out to be 19.6 µg/mL (≈ 117 µM). Take `O=C(COc1ccc(Cl)cc1Br)NC1CC1`: the kinetic solubility was more than 45.7 µg/mL. With `COc1ccccc1C(=O)NCCC(=O)NCC1CCCCC1` the figure was 47.4 µg/mL (≈ 149 µM); with `Cc1ccc(C(=O)CCC(=O)Nc2ccccc2C)c(C)c1`, 1.3 µg/mL (≈ 4.4 µM).

Consider `CCOc1ccccc1-n1c(C)cc(C=O)c1C`, for which the solubility (kinetic) is more than 36.5 µg/mL.

`CCCCn1nc(CC(=O)NCCN(CC)CC)c2ccccc2c1=O` displayed a solubility (kinetic) of more than 53.8 µg/mL. On to `CN1CCCN(C(=O)COc2ccc(Br)cc2)CC1`, for which the solubility (kinetic) amounted to 44.7 µg/mL (≈ 137 µM).

`COc1cccc(CC(=O)OCC(=O)NC2CCCC2)c1`: the kinetic solubility was more than 43.7 µg/mL.

Molecule `Cc1ccc(CSCC(=O)Nc2ccccc2)cc1` yielded a kinetic solubility of 33.4 µg/mL (≈ 123 µM).

Turning to `CCOc1ccc(Br)cc1S(=O)(=O)Nc1ccc(S(=O)(=O)Nc2cc(C)on2)cc1`, the kinetic solubility was determined as 9.3 µg/mL (≈ 18 µM). The value for `CC(=O)N1CCN(C(=O)c2ccc(Cl)c(S(=O)(=O)N3CCCC3)c2)CC1` was more than 60 µg/mL. With `Cc1cc(OC(=O)c2cccc(F)c2)c([N+](=O)[O-])c(=O)[nH]1` the figure was more than 43.8 µg/mL. With `CCCOc1ccc(C2Nc3cccc4cccc(c34)N2)cc1`, the kinetic solubility turned out to be 3.8 µg/mL (≈ 12.5 µM).

The molecule `COc1ccc(C(=O)NCCc2ccc(F)cc2)cc1OC` showed a kinetic solubility of more than 45.5 µg/mL. Molecule `NC(=NC1CCCCC1)NS(=O)(=O)c1ccccc1` registered a kinetic solubility of more than 42.2 µg/mL. With `O=C(Nc1ccc2c(c1)OCO2)C1CCCCC1` the figure was more than 37.1 µg/mL; with `O=C(O)/C=C/C(=O)Nc1ccc(Oc2ncnc3cc(Cl)ccc23)nc1`, more than 55.6 µg/mL; with `CN(Cc1ccccc1)S(=O)(=O)c1ccccc1[N+](=O)[O-]`, 15.3 µg/mL (≈ 49.9 µM). With `O=C(COC(=O)c1cc(Cl)nc(Cl)c1)NCc1ccc2c(c1)OCO2`, the kinetic solubility was 12.1 µg/mL (≈ 31.6 µM). The value for `CCCOc1ccc(Cc2c(O)nc(SC)[nH]c2=O)cc1` was 44.6 µg/mL (≈ 146 µM); that for `Cc1ccc(OCCNC(=O)Cc2ccc(F)cc2)cc1` was 29.2 µg/mL (≈ 102 µM). With `CC(OC(=O)c1ccc2ccccc2n1)C(=O)c1ccccc1` (stereo not given) the figure was more than 45.8 µg/mL. With `CC(=O)NC(CC(=O)NCCc1ccccc1)c1ccccc1` (stereo not given) the figure was 45.7 µg/mL (≈ 147 µM); with `O=C(Nc1ccc(Cl)cc1N1CCOCC1)C1CC1`, more than 42.1 µg/mL. On to `COc1ccc(Nc2nc(OC)nc(OC)n2)cc1`, for which the solubility (kinetic) was more than 39.3 µg/mL. The value for `Cn1cccc1C(=O)NCC1CCCCC1` was 28 µg/mL (≈ 127 µM). With `N#Cc1cc2ccccc2nc1SCC(=O)NC1CC1` the figure was 3.2 µg/mL (≈ 11.3 µM); with `Cc1ccc(C(=O)NCC(=O)Nc2ccc(Cl)cc2)s1`, 4.6 µg/mL (≈ 14.9 µM). `O=C(O)CCCC(=O)Nc1ccc(Oc2cccc(C(F)(F)F)c2)nc1` yielded a kinetic solubility of more than 55.2 µg/mL. In the case of `CC(=O)Nc1ccccc1Oc1ccccc1`, the solubility (kinetic) is more than 34.1 µg/mL. The value for `CCOC(=O)C1=C(C)OC(N)=C(C#N)C1c1ccccc1` (stereo not given) was 37.1 µg/mL (≈ 130 µM); that for `Fc1cccc(CNC2CCN(CCc3ccccc3)CC2)c1` was 33.7 µg/mL (≈ 108 µM); that for `CC1(C)CCN2CCC(C)(C)c3c(O)ccc1c32.CS(=O)(=O)O` was 19.6 µg/mL. With `COc1ccc(NC(=O)C2CC(=O)n3c(nc4ccccc43)N2)cc1` (stereo not given), the kinetic solubility was 0.3 µg/mL (≈ 0.892 µM). With `C=CCc1ccccc1OCC(O)CNC(=O)c1ccccc1C(=O)O` (stereo not given) the figure was more than 53.3 µg/mL. Consider `Cc1ccc(NC(=O)C2=C(C(=O)O)CCCC2)cc1F`, for which the kinetic solubility came to 26.9 µg/mL (≈ 97 µM). The value for `O=C(CN1C(=O)COc2ccccc21)NCCN1CCOCC1` was more than 47.9 µg/mL. With `O=C(Nc1cc2c3c(c1)CC(=O)N3CCC2)c1cccc(F)c1` the figure was 10.5 µg/mL (≈ 33.8 µM); with `O=C1C2C3CC(C2C(=O)N1c1cccc(Cl)c1)[C@H](O)C3O` (stereo not given in full), more than 46.2 µg/mL. On to `CC1(c2ccccc2)NC(=O)N(CC(=O)Nc2ccc3c(c2)CCC3)C1=O` (stereo not given), for which the kinetic solubility is 3.8 µg/mL (≈ 10.5 µM). In turn, `CC1CN(C(=S)Nc2ccccc2F)CC(C)O1` (stereo not given) came in with a solubility (kinetic) of more than 40.3 µg/mL. `O=C(N/N=C/c1ccccc1O)C(=O)N1CCCCCC1` showed a kinetic solubility of more than 43.4 µg/mL.

The molecule `CCN1CCCC1CNC(=S)Nc1ccc(C(C)=O)cc1` (stereo not given) showed a kinetic solubility of more than 45.8 µg/mL. With `CCN(CC)S(=O)(=O)c1ccc(N2CCOCC2)c(NC(=O)c2sccc2C)c1` the figure was 11.4 µg/mL (≈ 26.1 µM); with `CC1CCN(S(=O)(=O)c2ccc3c(c2)oc(=O)n3C)CC1`, 3 µg/mL (≈ 9.67 µM); with `Nc1nc(-c2nonc2N)no1`, more than 25.2 µg/mL.
